Laboratory results published in patent US7598344B2, “Composition, method and use of bi-functional biomaterials” (Board of Regents, The University of Texas System, priority 2002, dated 2009).
Ends that are not written are not given here.

Legend:
[1] = Biotinylated T59 peptide binding, streptavidin-FITC labeling, on PPyCl; settings: 15 μM peptide, 0.5×0.5 cm^2 substrate
Description: (§1) (b) 15 μM peptide bound to 0.5×0.5 cm^2 PPyCl substrate. (c) 15 μM peptide bound to 0.5×0.5 cm^2 PPyPSS substrate. (d) 15 μM peptide bound to 0.5×0.5 cm^2 polystyrene (PS) substrate. All samples were incubated with equal concentrations of streptavidin-FITC. Bar, 10 μm.
(§2) Additional working example data were obtained for the polypyrrole system. A peptide was synthesized whose sequence was determined from the T59 phage (ie., SEQ ID NO. 1).

[2] = Biotinylated T59 peptide binding, streptavidin-FITC labeling, on polystyrene; settings: 15 μM peptide, 0.5×0.5 cm^2 substrate
Description: as §1, §2

[3] = serum-containing media, pH 7.4, 15% serum; 3 hr, 7 days, 3 weeks
Description: Binding was studied using biotinylated T59 peptide and streptavidin-FITC labeling. (a) control substrate in which no T59 peptide was added, 0.5×0.5 cm2 PPyCl substrates (b) and (c) were incubated with 15 μM peptide, the samples were then placed in serum-containing media (pH 7.4 and 15% serum) for 3 hr (b), 7 days (c), and 3 weeks (d). Bar, 10 μm.
In addition, T59 peptide binding stability in serum-containing medium was also evaluated in working examples using immunofluorescence (note that all previous experiments were done in saline buffer).

Sequence: THRTSTLDYFVI (also: biotinylated, position not given here) [T59 peptide]
- peptide binding to PPyCl [1]: binds to PPyCl
- peptide binding to polystyrene (PS) [2]: not to PPyPSS or to polystyrene (PS)
- binding stability of PPyCl-bound peptide [3]: a significant fraction of T59 peptides remained bound to PPyCl even after 3 weeks
